Data taken from the CheMixHub viscosity set.

Test: xn = mol fraction of the nth substance listed

OCCN(CCO)CCO + CN1CCCC1=O
viscosity [mPa·s], 101 kPa
Settings	x2 = 0.0728	x2 = 0.1508	x2 = 0.2354	x2 = 0.3199	x2 = 0.4141	x2 = 0.5135	x2 = 0.6225	x2 = 0.7384	x2 = 0.863
293.15 K	572.9	337.4	162.4	84.29	43.36	22.93	11.2	6.152	3.354
303.15 K	255.2	159.4	84.21	47.61	27.51	14.93	8.012	4.62	2.747
313.15 K	123.8	77.19	47.61	28.9	16.82	10.34	5.907	3.554	1.892
323.15 K	56.97	40.67	29.54	18.75	11.33	7.604	4.552	2.766	1.497

CCC#N + CN(C)C=O
303.15 K, 101.33 kPa
Settings	viscosity [mPa·s]
x1 = 0.1013	0.6977
x1 = 0.1952	0.6428
x1 = 0.3003	0.5983
x1 = 0.4007	0.5648
x1 = 0.4949	0.5385
x1 = 0.5976	0.5113
x1 = 0.6964	0.4839
x1 = 0.7945	0.4533
x1 = 0.9	0.4186

NC(N)=O + CN(C)C=O
101 kPa
Settings	viscosity [mPa·s]
293.15 K, x1 = 0.00259	0.8641
293.15 K, x1 = 0.004089	0.8696
293.15 K, x1 = 0.005542	0.8749
293.15 K, x1 = 0.007625	0.8829
293.15 K, x1 = 0.008542	0.8861
293.15 K, x1 = 0.009703	0.8909
293.15 K, x1 = 0.01132	0.8964
293.15 K, x1 = 0.01367	0.906
298.15 K, x1 = 0.002771	0.8095
298.15 K, x1 = 0.00599	0.8163
298.15 K, x1 = 0.0088	0.8219
298.15 K, x1 = 0.01098	0.8295
298.15 K, x1 = 0.01142	0.8371
298.15 K, x1 = 0.01232	0.8421
298.15 K, x1 = 0.01349	0.8468
298.15 K, x1 = 0.0148	0.8557
303.15 K, x1 = 0.001637	0.7596
303.15 K, x1 = 0.003093	0.7641
303.15 K, x1 = 0.004755	0.7693
303.15 K, x1 = 0.005964	0.7728
303.15 K, x1 = 0.007418	0.7775
303.15 K, x1 = 0.008306	0.7799
303.15 K, x1 = 0.01015	0.7857
303.15 K, x1 = 0.01168	0.7908
308.15 K, x1 = 0.001989	0.7171
308.15 K, x1 = 0.003566	0.7214
308.15 K, x1 = 0.005107	0.7257
308.15 K, x1 = 0.006768	0.73
308.15 K, x1 = 0.008236	0.7345
308.15 K, x1 = 0.009277	0.7372
308.15 K, x1 = 0.01039	0.7403
308.15 K, x1 = 0.01098	0.7421

CCCCCCCCCCO + CO
viscosity [mPa·s], 101 kPa
Settings	298.15 K	308.15 K	318.15 K
x2 = 0.05	10.38	7.137	5.136
x2 = 0.1	9.75	6.75	4.899
x2 = 0.15	9.096	6.352	4.649
x2 = 0.2	8.429	5.944	4.39
x2 = 0.25	7.757	5.531	4.121
x2 = 0.3	7.086	5.115	3.847
x2 = 0.35	6.425	4.699	3.567
x2 = 0.4	5.779	4.287	3.285
x2 = 0.45	5.154	3.88	3.003
x2 = 0.5	4.554	3.481	2.721
x2 = 0.55	3.984	3.093	2.443
x2 = 0.6	3.448	2.719	2.171
x2 = 0.65	2.947	2.36	1.905
x2 = 0.7	2.485	2.02	1.649
x2 = 0.75	2.063	1.7	1.405
x2 = 0.8	1.681	1.403	1.174
x2 = 0.85	1.34	1.131	0.958
x2 = 0.9	1.038	0.886	0.76
x2 = 0.95	0.776	0.669	0.582

NC(N)=O + CO
viscosity [mPa·s], 101 kPa
Settings	293.15 K	298.15 K	303.15 K	308.15 K	313.15 K	318.15 K	323.15 K
x1 = 0.08238	0.924	0.849	0.781	0.721	0.668	0.62	0.576
x1 = 0.09642	–	0.9735	0.8914	0.8215	0.7546	0.6953	–
x1 = 0.1034	1.031	0.942	0.864	0.794	0.732	0.677	0.627
x1 = 0.1289	1.164	1.064	0.975	0.896	0.826	0.764	0.707
x1 = 0.138	–	1.222	1.111	1.019	0.9311	0.8588	–

CCCCCCCCCCCC + COC(=O)OC
298.15 K, 101.3 kPa
Settings	viscosity [mPa·s]
x2 = 0.0451	1.266
x2 = 0.0943	1.206
x2 = 0.1375	1.157
x2 = 0.225	1.079
x2 = 0.3467	0.977
x2 = 0.4784	0.877
x2 = 0.6212	0.775
x2 = 0.7364	0.697
x2 = 0.8599	0.633
x2 = 0.9441	0.602

CCCCCCCCCCO + COC(=O)OC
viscosity [mPa·s], 100 kPa
Settings	x2 = 0.1001	x2 = 0.2001	x2 = 0.3	x2 = 0.4	x2 = 0.5002	x2 = 0.6	x2 = 0.7001	x2 = 0.8	x2 = 0.9
303.15 K	7.04	5.107	3.812	2.818	2.121	1.582	1.196	0.901	0.683
308.15 K	5.988	4.394	3.309	2.477	1.885	1.423	1.084	0.831	0.637
313.15 K	5.091	3.804	2.897	2.191	1.686	1.288	0.991	0.772	0.596
318.15 K	4.385	3.313	2.552	1.953	1.519	1.167	0.913	0.716	0.559
323.15 K	3.777	2.903	2.258	1.751	1.37	1.069	0.843	0.667	0.526

CCOC(=O)OCC + COC(=O)OC
298.15 K, 101 kPa
Settings	viscosity [mPa·s]
x1 = 0.0355	0.585
x1 = 0.0848	0.594
x1 = 0.1396	0.603
x1 = 0.2098	0.615
x1 = 0.2886	0.628
x1 = 0.3619	0.641
x1 = 0.4542	0.657
x1 = 0.5424	0.672
x1 = 0.6375	0.689
x1 = 0.7315	0.706
x1 = 0.838	0.726
x1 = 0.8896	0.736
x1 = 0.9462	0.747

COCCOCCO + COC(=O)OC
298.15 K, 101.33 kPa
Settings	viscosity [mPa·s]
x1 = 0.0093	0.598
x1 = 0.0245	0.612
x1 = 0.037	0.623
x1 = 0.0694	0.655
x1 = 0.0966	0.685
x1 = 0.1283	0.723
x1 = 0.1675	0.774
x1 = 0.1922	0.806
x1 = 0.2198	0.848
x1 = 0.3005	0.984
x1 = 0.3454	1.069
x1 = 0.3786	1.142
x1 = 0.3835	1.154
x1 = 0.4083	1.214
x1 = 0.4365	1.284
x1 = 0.4695	1.364
x1 = 0.5345	1.538
x1 = 0.584	1.681
x1 = 0.623	1.803
x1 = 0.6563	1.916
x1 = 0.7394	2.226
x1 = 0.7818	2.402
x1 = 0.8262	2.598
x1 = 0.8705	2.802
x1 = 0.8876	2.889
x1 = 0.9134	3.004
x1 = 0.9327	3.098
x1 = 0.9669	3.272

CCC#N + COC(C)=O
303.15 K, 101.33 kPa
Settings	viscosity [mPa·s]
x1 = 0.1119	0.35
x1 = 0.2022	0.3551
x1 = 0.2958	0.3608
x1 = 0.4008	0.3657
x1 = 0.4952	0.3692
x1 = 0.5946	0.3732
x1 = 0.6967	0.3773
x1 = 0.7985	0.3811
x1 = 0.9022	0.3857

Cc1ccccc1C + COCCO
viscosity [mPa·s], 101 kPa
Settings	298.15 K	308.15 K
x2 = 0.0517	0.769	0.666
x2 = 0.1491	0.795	0.686
x2 = 0.2491	0.83	0.714
x2 = 0.3509	0.877	0.749
x2 = 0.4485	0.934	0.79
x2 = 0.4919	0.963	0.811
x2 = 0.5537	1.009	0.845
x2 = 0.6432	1.088	0.901
x2 = 0.7525	1.206	0.983
x2 = 0.8492	1.334	1.07
x2 = 0.9547	1.506	1.185

OCCOCCOCCO + COCCO
viscosity [mPa·s], 101 kPa
Settings	293.15 K	298.15 K	303.15 K
x2 = 0.0555	35.94	30.26	26.08
x2 = 0.1005	32.08	27.25	23.69
x2 = 0.1526	27.98	24.06	21.13
x2 = 0.201	24.53	21.36	18.93
x2 = 0.2544	21.12	18.65	16.69
x2 = 0.3016	18.45	16.49	14.87
x2 = 0.3421	16.37	14.79	13.44
x2 = 0.4006	13.74	12.58	11.54
x2 = 0.4493	11.83	10.95	10.13
x2 = 0.4936	10.3	9.622	8.98
x2 = 0.5499	8.592	8.124	7.664
x2 = 0.6007	7.271	6.95	6.621
x2 = 0.6501	6.157	5.943	5.714
x2 = 0.7042	5.105	4.973	4.825
x2 = 0.7531	4.289	4.207	4.115
x2 = 0.7931	3.714	3.65	3.584
x2 = 0.8455	3.061	2.991	2.954
x2 = 0.9009	2.487	2.385	2.346
x2 = 0.95	2.069	1.924	1.856
